Assay results published in BindingDB's records for doi:10.1021/jm00123a012 (Dainippon Pharmaceutical, 1989).

Target: Polyunsaturated fatty acid 5-lipoxygenase (Cavia porcellus)
Assay: Inhibitory activity against 5-lipoxygenase in guinea pig leukocyte

IC50: 4.86 µM
Compound: Cc1ccc(/C=C/C(=O)NCCCCN2CCN(C(c3ccccc3)c3ccccc3)CC2)cn1 [N-[4-(4-Benzhydryl-piperazin-1-yl)-butyl]-3-(6-methyl-pyridin-3-yl)-acrylamide]
